Counter-ions that a name gives are not always drawn.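 A five-concentration, 48-hour dose response in 96-well plates underlies each endpoint, interpolated linearly between surrounding concentrations. At the GI50, growth is halved.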 The source made the active and inactive calls. Cut-off read from the data, not from the text of the source: active = GI50 up to about 1.1 µM and inactive = higher.
Assays:
Test in all cases: NCI anticancer screen, dose series, 48 h
786-0 = tested on: 786-0
A498 = tested on: A498
A549 = tested on: A549
ACHN = tested on: ACHN
BT-549 = tested on: BT-549
CAKI-1 = tested on: CAKI-1
CCRF-CEM = tested on: CCRF-CEM
COLO 205 = tested on: COLO 205
DU-145 = tested on: DU-145
EKVX = tested on: EKVX
HCC 2998 = tested on: HCC 2998
HCT-116 = tested on: HCT-116
HCT-15 = tested on: HCT-15
HL-60 = tested on: HL-60
HOP-62 = tested on: HOP-62
HOP-92 = tested on: HOP-92
HT-29 = tested on: HT-29
Hs-578T = tested on: Hs-578T
IGROV-1 = tested on: IGROV-1
K562 = tested on: K562
KM12 = tested on: KM12
LOX IMVI = tested on: LOX IMVI
M14 = tested on: M14
MCF7 = tested on: MCF7
MDA-MB-231 = tested on: MDA-MB-231
MDA-MB-435 = tested on: MDA-MB-435
MDA-N = tested on: MDA-N
MOLT-4 = tested on: MOLT-4
Malme-3M = tested on: Malme-3M
NCI-H226 = tested on: NCI-H226
NCI-H23 = tested on: NCI-H23
NCI-H460 = tested on: NCI-H460
NCI-H522 = tested on: NCI-H522
NCI/ADR-RES = tested on: NCI/ADR-RES
OVCAR-3 = tested on: OVCAR-3
OVCAR-4 = tested on: OVCAR-4
OVCAR-5 = tested on: OVCAR-5
OVCAR-8 = tested on: OVCAR-8
PC-3 = tested on: PC-3
RPMI-8226 = tested on: RPMI-8226
RXF 393 = tested on: RXF 393
SF-268 = tested on: SF-268
SF-295 = tested on: SF-295
SF-539 = tested on: SF-539
SK-MEL-28 = tested on: SK-MEL-28
SK-MEL-2 = tested on: SK-MEL-2
SK-MEL-5 = tested on: SK-MEL-5
SK-OV-3 = tested on: SK-OV-3
SN12C = tested on: SN12C
SNB-19 = tested on: SNB-19
SNB-75 = tested on: SNB-75
SR = tested on: SR
SW-620 = tested on: SW-620
T47D = tested on: T47D
TK-10 = tested on: TK-10
U-251 = tested on: U-251
UACC-257 = tested on: UACC-257
UACC-62 = tested on: UACC-62
UO-31 = tested on: UO-31

Compound: CN1CCC(CN2c3ccccc3Sc3ccccc32)C1 (centres undefined) [METHDILAZINE HYDROCHLORIDE]
- GI50 (786-0): 14.7 µM (inactive)
- GI50 (A498): 13.1 µM (inactive)
- GI50 (A549): 16.2 µM (inactive)
- GI50 (ACHN): 14.7 µM (inactive)
- GI50 (BT-549): 16.8 µM (inactive)
- GI50 (CAKI-1): 14.7 µM (inactive)
- GI50 (CCRF-CEM): 15.2 µM (inactive)
- GI50 (COLO 205): 11.5 µM (inactive)
- GI50 (DU-145): 17.8 µM (inactive)
- GI50 (EKVX): 16.8 µM (inactive)
- GI50 (HCC 2998): 10.1 µM (inactive)
- GI50 (HCT-116): 13.9 µM (inactive)
- GI50 (HCT-15): 16.2 µM
- GI50 (HL-60): 14.7 µM (inactive)
- GI50 (HOP-62): 15 µM (inactive)
- GI50 (HOP-92): 12.8 µM (inactive)
- GI50 (HT-29): 10.9 µM (inactive)
- GI50 (Hs-578T): 15.4 µM (inactive)
- GI50 (IGROV-1): 17.3 µM (inactive)
- GI50 (K562): 12.3 µM (inactive)
- GI50 (KM12): 17.9 µM (inactive)
- GI50 (LOX IMVI): 15 µM (inactive)
- GI50 (M14): 10.5 µM (inactive)
- GI50 (MCF7): 17.2 µM (inactive)
- GI50 (MDA-MB-231): 14 µM (inactive)
- GI50 (MDA-MB-435): 10.1 µM (inactive)
- GI50 (MDA-N): 14.1 µM (inactive)
- GI50 (MOLT-4): 16.3 µM (inactive)
- GI50 (Malme-3M): 16.5 µM (inactive)
- GI50 (NCI-H226): 19.5 µM (inactive)
- GI50 (NCI-H23): 20.3 µM (inactive)
- GI50 (NCI-H460): 13.9 µM (inactive)
- GI50 (NCI-H522): 16.7 µM (inactive)
- GI50 (NCI/ADR-RES): 15.2 µM (inactive)
- GI50 (OVCAR-3): 14.2 µM (inactive)
- GI50 (OVCAR-4): 13.9 µM (inactive)
- GI50 (OVCAR-5): 16.7 µM (inactive)
- GI50 (OVCAR-8): 16.5 µM (inactive)
- GI50 (PC-3): 12.4 µM (inactive)
- GI50 (RPMI-8226): 15.1 µM (inactive)
- GI50 (RXF 393): 3.5 µM (inactive)
- GI50 (SF-268): 15.3 µM (inactive)
- GI50 (SF-295): 16.1 µM (inactive)
- GI50 (SF-539): 16.8 µM (inactive)
- GI50 (SK-MEL-28): 6.44 µM (inactive)
- GI50 (SK-MEL-2): 15.7 µM (inactive)
- GI50 (SK-MEL-5): 13.7 µM (inactive)
- GI50 (SK-OV-3): 17.3 µM (inactive)
- GI50 (SN12C): 15.3 µM (inactive)
- GI50 (SNB-19): 17.9 µM (inactive)
- GI50 (SNB-75): 1.79 µM (inactive)
- GI50 (SR): 2.7 µM (inactive)
- GI50 (SW-620): 19.2 µM (inactive)
- GI50 (T47D): 15.8 µM (inactive)
- GI50 (TK-10): 17.6 µM (inactive)
- GI50 (U-251): 13.7 µM (inactive)
- GI50 (UACC-257): 11.8 µM (inactive)
- GI50 (UACC-62): 12.8 µM (inactive)
- GI50 (UO-31): 14.8 µM (inactive)

From ChEMBL document CHEMBL1201862, “PubChem BioAssay data set” (2004)
